From paper PMC5357792, “Identification of mangiferin as a potential Glucokinase activator by structure-based virtual ligand screening” (Scientific Reports, 2017)

How the values were obtained:
[1] = target: T1, Glucokinase (GK) (Homo sapiens, UniProt P35557); assay: biochemical; set-up: G6PDH-coupled spectrophotometric glucokinase activity, NADPH absorbance at 340 nm, 10 mM glucose, 37 °C; details: for remaining activity at 50 µM: untreated GK = 100%, read-out: % of control remaining
T1 construct: gene GCK; full-length human glucokinase (GenBank: BC001890.1), C-terminally hexa-histidine tagged
T1 sequence (P35557 1-465): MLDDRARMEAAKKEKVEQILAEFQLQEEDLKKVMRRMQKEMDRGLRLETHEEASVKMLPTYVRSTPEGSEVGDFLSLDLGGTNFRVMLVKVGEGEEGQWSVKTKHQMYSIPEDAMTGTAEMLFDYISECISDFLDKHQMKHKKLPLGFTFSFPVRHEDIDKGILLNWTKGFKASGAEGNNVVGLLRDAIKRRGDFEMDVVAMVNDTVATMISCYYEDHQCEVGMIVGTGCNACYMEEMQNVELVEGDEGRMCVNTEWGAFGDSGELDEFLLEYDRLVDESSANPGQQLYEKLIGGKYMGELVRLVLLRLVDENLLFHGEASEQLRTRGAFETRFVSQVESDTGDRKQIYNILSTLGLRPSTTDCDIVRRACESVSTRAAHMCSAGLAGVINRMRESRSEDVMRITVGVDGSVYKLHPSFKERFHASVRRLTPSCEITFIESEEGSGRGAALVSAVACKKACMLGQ
Method: The in vitro efficacy of twelve compounds was assessed in two separate steps: a SC50 assay to evaluate the potency of each compound at a unified compound concentration of 50 μM. Then, we seek to obtain the values of EC50 and kinetic parameters Ka, Vmax of promising compounds, according to a reported method with minor modifications. Briefly, Twelve compounds unified in the same concentration of 50 μM were assayed in a 96-well plate with a final reaction volume of 100 μl. The reaction mixture consisted of 25 mM Hepes (pH 7.5), 10 mM glucose, 1 mM ATP, 4 U/ml G6PDH (Sigma-Aldrich Co. LLC., St. Louis, MO, USA), 1 mM NADP, 2.5 mM MgCl, 50 mM KCl, 2 mM DTT, […] recombinant human glucokinase and test compounds. The whole reaction mixtures were kept under 37 °C for 20 minutes. The increase in the rate of absorbance of NADPH generated in the reactions was monitored kinetically at 340 nm. The values were calculated by comparing with untreated GK. This term is called the efficacy of stimulatory concentration (SC50). Then, the EC50 of promising candidates were determined in the presence of various fixed concentrations of compound 7 (2–300 μM). Values were calculated by fitting enzymatic rates to the Hill equation by using GraphPad Prism 5.01. In order to further investigate the activation effect of the twelve compounds on GK enzymatic activity, the recombinant GK protein had been successfully obtained by genetic engineering method. Evaluation of the twelve hits on enzymatic activity was assessed spectrometrically by a coupled reaction with glucose-6-phosphate dehydrogenase. […] The activation percentage was the GK enzyme activity in each group compared to that of the blank control group. Each compound was assayed triply. The value presents in a column as the mean ± SD (n = 3). *P < 0.05, **P < 0.01, compared to the blank control group.

[2] = target: T1, Glucokinase (GK); assay: microscale thermophoresis with labelled recombinant GK; also coupled G6PDH enzyme activation assay (EC50 ca. […]); type: binding; details: read-out: Dissociation constant with GK / Kd
[3] = target: T1, Glucokinase (GK); assay: microscale thermophoresis with labelled recombinant GK; type: binding; details: read-out: Dissociation constant with GK / Kd

| remaining activity at 50 µM [1] | SMILES | further results |
| --- | --- | --- |
| 46.7 ± 1.21% | Cc1nc(S)sc1CC(=O)Nc1c[nH]ccc1=O [compound 3, 3] |  |
| 94.3 ± 1.49% | O=C1NCC(c2ccc(Cl)cc2)Cc2[nH]c(-c3ncc[nH]3)nc21 (centres unmarked) [compound 10, 10] |  |
| 82.4 ± 6.72% | Cn1ccc(NC(=O)N(Cc2ccccc2)CC(O)c2ccco2)n1 (centres unmarked) [compound 9, 9] |  |
| 87.6 ± 5.67% | Cc1sc2ncnc(SCC(=O)Nc3c[nH]ccc3=O)c2c1C [compound 5, 5] |  |
| 86.1 ± 5.68% | O=C(Nc1nc(-c2c[nH]c3ccccc23)cs1)c1cnccn1 [compound 1, 1] |  |
| 86.5 ± 5.71% | NC(=O)c1coc(-c2csc(NC(=O)c3ccc(Cl)cc3)n2)c1 [compound 2, 2] |  |
| 37.8 ± 12% | Oc1ccc(Nc2ncnc3sccc23)cc1CN1CCOCC1 [compound 4, 4] |  |
| 90 ± 3.88% | O=C(NCC(c1cccs1)c1c[nH]c2ccccc12)c1ccccn1 (centres unmarked) [compound 6, 6] |  |
|  | O=C(Nc1ncc(SCCN2CCCC2)s1)[C@]1(c2ccc(S(=O)(=O)C3CC3)cc2)C[C@H]1C1CCCCC1 [LY2608204] | Kd [3]: 600 ± 36.1 µM |
| 75.9 ± 6.72% | COc1ccccc1C(=O)Nc1cccc(NC(=O)c2ncc[nH]2)c1 [compound 11, 11] |  |
| 92 ± 0.96% | CC(O)CNc1nc2ccccc2n1Cc1nc(N)nc(N(C)C)n1 (centres unmarked) [compound 8, 8] |  |

| SMILES | remaining activity at 50 µM [1] | further results |
| --- | --- | --- |
| O=c1c2cc(O)c(O)cc2oc2cc(O)c([C@@H]3O[C@H](CO)[C@@H](O)[C@H](O)[C@H]3O)c(O)c12 [compound 7, mangiferin] | 126 ± 2.83% | Kd [2]: 472 ± 20.5 µM; EC50 [1]: 156 µM |
